From US6395256B1 (priority 1997, dated 2002)
Values joined by “and” are separate entries in the source; they are usually repeats but may differ in a detail not shown here. Identical values can stand only once. Like-named read-outs stand apart in the source and are kept apart here.

Legend:
[1] = target: T1, reduced SAH hydrolase (Bos taurus, UniProt Q3MHL4); assay: 3H-adenosine displacement using reduced SAH hydrolase; type: binding, bovine
T1 construct: SAH hydrolase is purified with classical chromatographical methods to homogeneity from organs e.g. from bovine kidney; from tissue; host or cells: bovine kidney
T1 sequence (Q3MHL4 2-432 limits assumed): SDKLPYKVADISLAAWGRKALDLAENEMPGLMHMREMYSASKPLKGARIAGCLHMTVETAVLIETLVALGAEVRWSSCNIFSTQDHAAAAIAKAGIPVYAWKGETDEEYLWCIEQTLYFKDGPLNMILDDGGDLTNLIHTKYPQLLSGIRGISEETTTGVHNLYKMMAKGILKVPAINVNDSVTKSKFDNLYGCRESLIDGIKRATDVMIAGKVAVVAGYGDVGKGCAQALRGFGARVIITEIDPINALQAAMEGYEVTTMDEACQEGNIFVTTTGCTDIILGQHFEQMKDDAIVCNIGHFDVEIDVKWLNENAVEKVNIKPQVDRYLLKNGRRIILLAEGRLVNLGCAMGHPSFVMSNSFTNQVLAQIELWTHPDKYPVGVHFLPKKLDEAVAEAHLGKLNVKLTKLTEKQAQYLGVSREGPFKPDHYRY
Experimental: 100 μl reduced SAH hydrolase (1 μg/300 μl)
50 μl buffer—20 mM Tris, 40 mM Hepes pH 7.0
Therefore the samples are incubated over night. The assay mixture is separated through nitrocellulose filters with a filtration equipment.

[2] = target: T2, active SAH hydrolase (Bos taurus, UniProt Q3MHL4); assay: 3H-adenosine displacement using active SAH hydrolase; type: binding, bovine
T2 construct: SAH hydrolase is purified with classical chromatographical methods to homogeneity from organs e.g. from bovine kidney; from tissue; host or cells: bovine kidney
T2 sequence (Q3MHL4 2-432 limits assumed): T1 sequence (Q3MHL4 2-432 limits assumed)
Experimental: SAH hydrolase is purified with classical chromatographical methods to homogeneity from organs e.g. from bovine kidney. Fresh bovine kidney (450 g), obtained from the local slaughterhouse were homogenized in two volumes of 50 mM potassium phosphate buffer pH 7.0, 1 mM DTT, 1 mM EDTA and 10 mM PMSF. The homogenate was centrifuged at 20000×g for 60 min. […] After centrifugation at 20000×g for 30 min the precipitate was disolved in 300-400 ml 20 mM Tris/HCl pH 7.5, 1 mM DTT and 1 mM EDTA and dialyzed against the same buffer.

[3] = reduced SAH hydrolase, read-out: EC50 values of 3H-adenosine displacement, reduced SAH hydrolase
[4] = active SAH hydrolase, read-out: EC50 values of 3H-adenosine displacement, active SAH hydrolase

Molecule	EC50 [1, 3]	EC50 [2, 4] [µM]	EC50 [1] [µM]	EC50 [2] [µM]
Nc1ncnc2c1ncn2[C@@H]1O[C@H](COP(=O)(O)O)[C@@H](O)[C@H]1O [AMP]	100 µM and > 100 µM	10		
CCNC(=O)[C@H]1O[C@@H](n2cnc3c(N)ncnc32)[C@H](O)[C@@H]1O [NECA]	> 100 µM	0.24		
Nc1ncnc2nc[nH]c12 [adenine]	> 100 µM	11.5		
OC[C@H]1O[C@@H](n2cnc3c(O)ncnc32)[C@H](O)[C@@H]1O [inosine]	10 µM	10		
Cn1c(=O)c2[nH]cnc2n(C)c1=O [theophylline]			> 100	> 100

Continued, in another order:

EC50 [1, 3]	EC50 [2, 4] [µM]	Molecule	EC50 [1] [µM]	EC50 [2] [µM]
0.63 µM	0.094	Nc1ncnc2c1ncn2[C@H]1C[C@H](O)[C@@H](CO)O1 [2′-deoxyadenosine]		
> 100 µM	10	Nc1ncnc2c1ncn2[C@@H]1O[C@H](COP(=O)(O)OP(=O)(O)O)[C@@H](O)[C@H]1O [ADP]		
0.4 µM	0.246	Nc1ncnc2c1ncn2[C@@H]1O[C@H](CSCC[C@H](N)C(=O)O)[C@@H](O)[C@H]1O [SAH, S-adenosylhomocysteine]		
5 µM	5	N[C@@H](CCS)C(=O)O [homocysteine]		
10 µM	0.18	diadenosine-dialdehyde		
